From patent EP0521435A2, “Method to promote the production of secondary metabolites in plant cell cultures” (B.A.T. Cigarettenfabriken GmbH, priority 1991, dated 1993)

Legend:
Digitalis purpurea = format: cell-based; conditions: concentration of elicitor not given
Source text: (§1) Weitere Beispiele sind: Digitalis purpurea: Cardenoloide, die unter dem Einfluß von Jasmonat gegenüber der Kontrolle eine 2-fach gesteigerte Konzentration erreichen; Linum hirsutum: Lignane, die 2,5-fach gesteigert sind; Gossypium herbaceum: Gossipol, 10-fach gesteigert gegenüber der Kontrolle; isolierte Wurzelkulturen von Hyoscyamus alba: Hyoscyamin/Scopolamin: stark parasympatholytische bzw. zentraldämpfende, medizinisch wertvolle Alkaloide, 12-fache Steigerung gegenüber der Kontrolle; Zellkulturen von Colchicum autumnale, die das Gichtmittel Colchicin produzieren, 8-fache Steigerung gegenüber der Kontrolle; Zellkulturen von Cephaelis ipecacuanha, die das arzneilich genutzte Emetin produzieren, das bei Keuchhusten und Bronchialasthma sowie als erbrechungsförderndes Mittel Anwendung findet, 7,5-fache Steigerung gegenüber der Kontrolle; Zellkulturen von Cinchona succirubra bzw. Cinchona ledgeriana, die medizinisch als Antiarhythmikum bzw. als Chemotherapeutikum (Malaria) eingesetzt werden, Steigerung 14-fach; Zellkulturen von Rauwolfia serpentina, die die therapeutisch genutzten Indolalkaloide Reserpin (blutdrucksenkend, sedierend), Serpentin (blutdrucksenkend), Ajmalin (bei Herzrhythmusstörungen), Ajmalicin (Gehirn-durchblutungsfördernd), Yohimbin (durchblutungsfördernd) produzieren.
(§2) B. Glukoseester, Aminosäure- oder andere Kohlenhydrataddukte eingesetzt werden.

Gossypium herbaceum = format: cell-based; conditions: concentration of elicitor not given
Source text: as §1, §2

[1] = test system: Zellkulturen von Cephaelis ipecacuanha; format: cell-based; conditions: concentration of elicitor not given
Source text: as §1, §2

[2] = test system: Zellkulturen von Colchicum autumnale; format: cell-based; conditions: concentration of elicitor not given
Source text: as §1, §2

[3] = test system: isolierte Wurzelkulturen von Hyoscyamus alba; format: cell-based; conditions: isolated root cultures; concentration of elicitor not given
Source text: as §1, §2

Linum hirsutum = experiment: Elicitation of lignans; format: cell-based; conditions: versus control; concentration of elicitor not given
Source text: as §1, §2

[4] = test system: Zellkulturen von Cinchona succirubra bzw. Cinchona ledgeriana; experiment: Elicitation of secondary metabolites in Cinchona cell cultures; format: cell-based; conditions: product not named in b24 (Chinidin und Chinin according to b23); concentration of elicitor not given
Source text: Beispiele für Sekundärstoffe, die durch das erfindungsgemäße Verfahren produziert werden können, sind: Atropin und Scopolamin, isoliert aus Hyoscyamus- und Datura-Wurzelkulturen, Colchicin aus Herbstzeitlose, Emetin aus Zell- und Wurzelkulturen der Brechwurz, Codein und Morphin aus Zellkulturen des Schlafmohns, Chinidin und Chinin aus Zellkulturen von Cinchona succirubra bzw. Cinchona ledgeriana, Ajmalin, Rescinamin, Reserpin aus Zellkulturen von Rauwolfia-Arten. Diese Substanzen werden arzneilich eingesetzt. Insbesondere sind also die Stoffgruppen der Indolalkaloide, der Isochinolinalkaloide, der Lignane und Isoprenoide zu nennen. […]

[5] = test system: Zellkultur von Lactuca sativa; experiment: Elicitation of lettucenin A in cell culture; format: cell-based; conditions: 250 µmol/l; extraction 6 days later; not detectable in control culture
Experimental: as §2
Eine Zellkultur von Lactuca sativa wird 24 Stunden nach dem Überimpfen in LS-Medium mit 3-Hydroxyjasmonsäure zu einer Endkonzentration von 250 µmol/l versetzt. Die Extraktion mit Methanol erfolgt 6 Tage später. Die elicitierten Kulturen enthalten das Custonolid Lettucenin A in einer Konzentration von ca. 30 mg/I. In den Extrakten einer Kontrollkultur ist Lettucenin A nicht nachweisbar.

[6] = test system: Kultur von Rauwolfia serpentina; experiment: Elicitation of vallesiachotamine in cell culture; format: cell-based; conditions: 200 umol/1, cultivated 4 further days
Experimental: as §2
Eine Kultur von Rauwolfia serpentina, in LS-Medium 3 Tage gewachsen, wird zu einer Endkonzentration von 200 umol/1 mit Jasmonsäure versetzt und 4 Tage weiterkultiviert. Der methanolische Extrakt des Gewebes enthält eine 8-fache Vallesiacotamin-Konzentration gegenüber der Kontrolle. Der Absolutwert ist 70 mg/I Medium.

Berberinbrückenenzym = experiment: mRNA hybridisation with a probe against the berberine bridge enzyme after elicitation; format: cell-based, Eschscholtzia californica; conditions: elicited as in Beispiel 1
Source text: Zellkulturen von Eschscholtzia californica werden - wie in Beispiel 1 beschrieben - mit Methyljasmonat elicitiert. Nach Zugabe des Jasmonats werden im Abstand von je 1 Stunde Aliquots entnommen und die m-RNA extrahiert. Die m-RNA wird mit einer Probe gegen das Berberinbrückenenzym, ein Schlüsselenzym des Benzophenanthridin-Stoffwechsels, hybridisiert. […] Die so induzierte m-RNA ist ein Indiz für die Genaktivierung der an der Elicitierung und an der Alkaloidbiosynthese beteiligten Enzyme. Die Verbindungen der Formel (I) sind demnach in der Lage, reprimierte Sekundärstoffgene zu aktivieren.

[7] = test system: Zellsuspensionskultur von Eschscholtzia californica; conditions: 20 umol/1; cultivated 5 further days; per litre culture medium
Source text: (§3) Die Zellkultur wird in Flüssigmedium kultiviert und kann entweder in entsprechenden Kulturgefäßen oder in Fermentern herangezogen werden. Nach einer Anwachsphase von 2 bis 10 Tagen wird dem Medium eine in Ethanol gelöste Verbindung der Formel (I) zugesetzt. […] Nach Bildung der maximalen Konzentration an Sekundärstoffen wird der Versuch durch Separierung der Zellen vom Medium abgebrochen und die Sekundärstoffe werden anschließend nach bekannten Verfahren aus dem Zellüberstand oder den Zellen isoliert.
(§4) Einer Zellsuspensionskultur von Eschscholtzia californica, die in 1 Liter LS-Nährmedium (Linsmaier, E. M., Skoog, F., Physiol. Plant 18, 100 (1965)) herangewachsen ist und deren Frischgewicht 200 g beträgt, wird Methyljasmonat zu einer Endkonzentration von 20 umol/1 zugesetzt. Die Kultur wird für 5 Tage weiterkultiviert, anschließend mit 200 ml salzsaurem Ethanol (1,7 ml HCI konz./1 I Ethanol) 2 Stunden lang bei 60 ° C extrahiert.

[8] = test system: Zellsuspensionskultur von Eschscholtzia californica; experiment: cells; conditions: 120 h, read-out: Steigerung der Benzophenanthridin-Produktion
Source text: as §3, §4

Kultur von Glycine max = experiment: cells; conditions: 144 h, read-out: höhere Konzentration an Daidcein- und Genistein-Glycosiden
Experimental: Die Zellkultur wird in Flüssigmedium kultiviert und kann entweder in entsprechenden Kulturgefäßen oder in Fermentern herangezogen werden. Nach einer Anwachsphase von 2 bis 10 Tagen wird dem Medium eine in Ethanol gelöste Verbindung der Formel (I) zugesetzt.
Eine Kultur von Glycine max wird mit 330 g Frischgewicht in 1 Liter 4x-Medium (Gamborg, Miller, Ojima, Experiment Research 50, 151 - 158 (1968)), 2,4-D 2 mg/I, NES 0,5 mg/I, IES 0,5 mg/I, Kinetin 0,2 mg/I versetzt. 3 Tage später wird Methyljasmonat zu einer Endkonzentration von 250 umol/1 zugesetzt. Nach einer Kultivierungsperiode von 6 Tagen wird die Kultur mit Methanol extrahiert (50 g Frischgewicht/200 ml Methanol; 2 Stunden, 60 ° C).

[9] = test system: Kultur von Rubia tinctorum; experiment: Elicitation of anthraquinones (alizarin) in cell culture; format: cell-based; conditions: added after 4 days, harvested after 7 days; concentration not given
Source text: as §2
Eine Kultur von Rubia tinctorum wird in LS-Medium kultiviert. Nach 4 Tagen werden der Kultur 2',3'-Dihydrojasmonat zugesetzt. Nach 7 Tagen wird die Kultur geerntet und der Anthrachinon-Gehalt bestimmt. Der Zuwachs an Alizarin beträgt das ca. 40-fache gegenüber der Kontrolle.

[10] = test system: Rauwolfia canescens Zellkultur; experiment: Induction of new indole alkaloids in cell culture; format: cell-based; conditions: 200 µmol/l; cultivated 6 further days; number of new alkaloids
Source text: as §2
Einer 4 Tage alten Rauwolfia canescens Zellkultur (LS-Medium) wird 3-Hydroxyjasmonat zu einer Endkonzentration von 200 µmol/l zugesetzt. Die Kultur wird 6 Tage weiterkultiviert und mit einer entsprechenden Kontrolle, der kein 3-Hydroxyjasmonat zugesetzt wurde, verglichen. Dabei zeigt sich, daß in dieser Zellkultur 6 Indolalkaloide gebildet werden, die in der Kontrollkultur nicht vorkommen.

[11] = test system: Kultur von Ruta chalepensis; experiment: Elicitation of rutacridone in cell culture; format: cell-based; conditions: 40 µmol/l; cultivated 5 further days; methanol extract
Source text: as §2
Eine 2 Tage alte Kultur von Ruta chalepensis (4x-Medium) wird mit Jasmonatglukosid zu einer Endkonzentration von 40 µmol/l versetzt, für 5 Tage weiterkultiviert und mit Methanol extrahiert. Der Extrakt zeigt einen 18-fachen Rutacridon-Gehalt gegenüber der Kontrolle.

## CC/C=C\C[C@H]1C(=O)CC[C@@H]1CC(=O)O [Jasmonat]
Digitalis purpurea
  Cardenoloide, gesteigerte Konzentration gegenüber der Kontrolle: 2 -fach
Gossypium herbaceum
  Gossipol gesteigert gegenüber der Kontrolle: 10 -fach
[1]
  Emetin Steigerung gegenüber der Kontrolle: 7,5 -fach
[2]
  Colchicin Steigerung gegenüber der Kontrolle: 8 -fach
[3]
  Hyoscyamin/Scopolamin Steigerung gegenüber der Kontrolle: 12 -fach
Linum hirsutum
  Lignane gesteigert: 2,5 -fach
[4]
  Steigerung: 14 -fach

## 3-Hydroxyjasmonsäure
[5]
  Lettucenin A Konzentration: ca. 30 mg/I

## CCC=CCC1C(=O)CCC1CC(=O)O (stereo not drawn) [Jasmonsäure]
[6]
  Vallesiacotamin-Konzentration, Absolutwert: 70 mg/I Medium
[6]; Rauvolfia serpentina, 96 h, methanolic extract of the tissue, read-out: Vallesiacotamin-Konzentration gegenüber der Kontrolle
  fold induction at 200 µM: 8

## CCC=CCC1C(=O)CCC1CC(=O)OC (stereo not drawn) [Methyljasmonat]
Berberinbrückenenzym; in 2 hours after addition, versus control culture
  spezifische m-RNA-Menge: verdoppelt
Berberinbrückenenzym; in 10 hours after addition, then decreases again
  spezifische m-RNA-Menge: weiter ansteigt
[7]
  Gesamtausbeute der Kultur, Benzophenanthridine pro Liter Kulturmedium: 300 mg
[8]
  fold induction at 20 µM: 15
Kultur von Glycine max
  fold induction at 250 µM: ~30

## 2',3'-Dihydrojasmonat
[9]
  Zuwachs an Alizarin gegenüber der Kontrolle: ca. 40 -fach

## 3-Hydroxyjasmonat
[10]
  Indolalkaloide gebildet, die in der Kontrollkultur nicht vorkommen: 6

## Jasmonatglukosid
[11]
  Rutacridon-Gehalt gegenüber der Kontrolle: 18 -fach
